Results taken from USRE48335E1, “Polymyxin derivatives as antimicrobial compounds” (priority 2014, dated 2020).
≈ marks a conversion by molar mass, not a printed value. Positions of bridges follow the written chain, without caps; N, C: chain ends. Non-standard residues stand in square brackets, D forms with d. Residues, ends and D or L forms follow the SMILES beside them. *: point of attachment. X36 = O=C(c1cc(C(F)(F)F)cc(C(F)(F)F)c1)*; Benzoyl(4-Me) = Cc1ccc(C(=O)*)cc1; X30 = Cc1cc(C)c(C(=O)*)c(C)c1; X24 = Cc1ccc(C(=O)*)c(C)c1; X29 = Cc1cc(C)cc(C(=O)*)c1; X25 = Cc1cccc(C(=O)*)c1C; Dab = NCC[C@H](N)C(=O)O; X33 = Cc1cccc(C(=O)*)c1; Abu = CC[C@H](N)C(=O)O; Dap = NC[C@H](N)C(=O)O

Key:
[1] = test system: Acinetobacter baumannii
Outline: (§1)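 Read-out is the MIC, obtained by broth microdilution under CLSI guidance. Lipopeptides (TFA salt form) were diluted in cation-adjusted Mueller-Hinton broth, with polymyxin B sulphate run alongside as control.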

[2] = test system: Pseudomonas aeruginosa
Outline: as §1

[3] = test system: Enterobacter cloacae
Outline: as §1

SMILES	Minimum inhibitory concentration, Ab A ATCC 17978 [1] [µg/mL]	Minimum inhibitory concentration, Ab ATCC 19606 [1] [µg/mL]	Minimum inhibitory concentration, Ab FADDI-AB034 [1] [µg/mL]	Minimum inhibitory concentration, Pa ATCC 27853 [2] [µg/mL]	Minimum inhibitory concentration, Pa FADDI-PA022 [2] [µg/mL]	Minimum inhibitory concentration, Pa FADDI-PA025 [2] [µg/mL]	Minimum inhibitory concentration, Ec FADDI-EC001 [3] [µg/mL]	Minimum inhibitory concentration, Ec FADDI-EC003 [3] [µg/mL]	Minimum inhibitory concentration, Ec FADDI-EC006 [3] [µg/mL]
CC[C@@H]1NC(=O)[C@@H](CC(C)C)NC(=O)[C@H](CCN)NC(=O)[C@@H](NC(=O)[C@H](CN)NC(=O)[C@@H](NC(=O)[C@H](CCN)NC(=O)c2cccc(C)c2)[C@@H](C)O)CCNC(=O)[C@H]([C@@H](C)O)NC(=O)[C@H](CCN)NC(=O)[C@H](CCN)NC1=O [Compound 87] (X33-[Dab]T[Dap][Dab][Dab][dL][Abu][Dab][Dab]T; lactam 4-C)	1 (≈ 0.905 µM)	2 (≈ 1.81 µM)	2 (≈ 1.81 µM)	0.5 (≈ 0.452 µM)	1 (≈ 0.905 µM)	2 (≈ 1.81 µM)	2 (≈ 1.81 µM)	1 (≈ 0.905 µM)	2 (≈ 1.81 µM)
CC[C@@H]1NC(=O)[C@@H](CC(C)C)NC(=O)[C@H](CCN)NC(=O)[C@@H](NC(=O)[C@H](CN)NC(=O)[C@@H](NC(=O)[C@H](CCN)NC(=O)c2ccc(C)cc2C)[C@@H](C)O)CCNC(=O)[C@H]([C@@H](C)O)NC(=O)[C@H](CCN)NC(=O)[C@H](CCN)NC1=O [Compound 89] (X24-[Dab]T[Dap][Dab][Dab][dL][Abu][Dab][Dab]T; lactam 4-C)	1 (≈ 0.893 µM)	4 (≈ 3.57 µM)	1 (≈ 0.893 µM)	0.5 (≈ 0.447 µM)	1 (≈ 0.893 µM)	4 (≈ 3.57 µM)	<0.125	<0.125	2 (≈ 1.79 µM)
CC[C@@H]1NC(=O)[C@@H](CC(C)C)NC(=O)[C@H](CCN)NC(=O)[C@@H](NC(=O)[C@H](CN)NC(=O)[C@@H](NC(=O)[C@H](CCN)NC(=O)c2cccc(C)c2C)[C@@H](C)O)CCNC(=O)[C@H]([C@@H](C)O)NC(=O)[C@H](CCN)NC(=O)[C@H](CCN)NC1=O [Compound 91] (X25-[Dab]T[Dap][Dab][Dab][dL][Abu][Dab][Dab]T; lactam 4-C)	1 (≈ 0.893 µM)	4 (≈ 3.57 µM)	2 (≈ 1.79 µM)	0.5 (≈ 0.447 µM)	2 (≈ 1.79 µM)	4 (≈ 3.57 µM)	<0.125	<0.125	0.5 (≈ 0.447 µM)
CC[C@@H]1NC(=O)[C@@H](CC(C)C)NC(=O)[C@H](CCN)NC(=O)[C@@H](NC(=O)[C@H](CN)NC(=O)[C@@H](NC(=O)[C@H](CCN)NC(=O)c2c(C)cc(C)cc2C)[C@@H](C)O)CCNC(=O)[C@H]([C@@H](C)O)NC(=O)[C@H](CCN)NC(=O)[C@H](CCN)NC1=O [Compound 92] (X30-[Dab]T[Dap][Dab][Dab][dL][Abu][Dab][Dab]T; lactam 4-C)	0.5 (≈ 0.441 µM)	4 (≈ 3.53 µM)	4 (≈ 3.53 µM)	0.5 (≈ 0.441 µM)	0.5 (≈ 0.441 µM)	4 (≈ 3.53 µM)	<0.125	0.25 (≈ 0.221 µM)	2 (≈ 1.76 µM)
CC[C@@H]1NC(=O)[C@@H](CC(C)C)NC(=O)[C@H](CCN)NC(=O)[C@@H](NC(=O)[C@H](CN)NC(=O)[C@@H](NC(=O)[C@H](CCN)NC(=O)c2cc(C)cc(C)c2)[C@@H](C)O)CCNC(=O)[C@H]([C@@H](C)O)NC(=O)[C@H](CCN)NC(=O)[C@H](CCN)NC1=O [Compound 93] (X29-[Dab]T[Dap][Dab][Dab][dL][Abu][Dab][Dab]T; lactam 4-C)	0.5 (≈ 0.447 µM)	1 (≈ 0.893 µM)	0.5 (≈ 0.447 µM)	2 (≈ 1.79 µM)	4 (≈ 3.57 µM)	2 (≈ 1.79 µM)	0.25 (≈ 0.223 µM)	1 (≈ 0.893 µM)	4 (≈ 3.57 µM)
CC[C@@H]1NC(=O)[C@@H](CC(C)C)NC(=O)[C@H](CCN)NC(=O)[C@@H](NC(=O)[C@H](CN)NC(=O)[C@@H](NC(=O)[C@H](CCN)NC(=O)c2cc(C(F)(F)F)cc(C(F)(F)F)c2)[C@@H](C)O)CCNC(=O)[C@H]([C@@H](C)O)NC(=O)[C@H](CCN)NC(=O)[C@H](CCN)NC1=O [Compound 97] (X36-[Dab]T[Dap][Dab][Dab][dL][Abu][Dab][Dab]T; lactam 4-C)	<0.125	0.5 (≈ 0.407 µM)	0.25 (≈ 0.204 µM)	0.5 (≈ 0.407 µM)	0.5 (≈ 0.407 µM)	1 (≈ 0.815 µM)	0.5 (≈ 0.407 µM)	0.25 (≈ 0.204 µM)	0.5 (≈ 0.407 µM)
CC[C@@H]1NC(=O)[C@@H](CC(C)C)NC(=O)[C@H](CCN)NC(=O)[C@@H](NC(=O)[C@H](CN)NC(=O)[C@@H](NC(=O)[C@H](CCN)NC(=O)c2ccc(C)cc2)[C@@H](C)O)CCNC(=O)[C@H]([C@@H](C)O)NC(=O)[C@H](CCN)NC(=O)[C@H](CCN)NC1=O [Compound 98] ({Benzoyl(4-Me)}-[Dab]T[Dap][Dab][Dab][dL][Abu][Dab][Dab]T; lactam 4-C)	2 (≈ 1.81 µM)	2 (≈ 1.81 µM)	2 (≈ 1.81 µM)	0.5 (≈ 0.452 µM)	0.5 (≈ 0.452 µM)	2 (≈ 1.81 µM)	1 (≈ 0.905 µM)	0.25 (≈ 0.226 µM)	2 (≈ 1.81 µM)
